{"source": "patent US20240342168A1", "about": "“SMALL MOLECULE INHIBITORS FOR ANTI-CANCER COMBINATION THERAPY” (UNIVERSITY OF CAPE TOWN, priority 2021, published 2024)", "key": {"[1]": {"test_system": "C33A", "assay": "MTT cell viability / cisplatin IC50 determination", "assay_type": "cell-based", "protocol": "(§1) HeLa, SiHa, CaSki and C33A cell lines were purchased from the American Type Culture Collection (ATCC) and maintained in Dulbecco's Modified Eagle's Medium (DMEM, Gibco, Life Technologies) containing 10% Fetal Bovine Serum (Gibco, Life Technologies), supplemented with 100 U/mL penicillin and 100 μg/mL streptomycin. Cells were cultured at 37° C. in a humidified chamber with 5% CO2. All cell lines were authenticated by DNA profiling using the Cell ID System (Promega, Madison, WI, USA).\n(§2) Cells were plated in 96-well plates and subjected to single or CT (2 h INI-43 pre-treatment followed by cisplatin treatment, without removing IN1-43 from the media) for 48 h. Following treatment, MTT (Sigma) was added and 4 h later crystals solubilized using 10% SLS in 0.01 M HCl. Absorbencies were measured at 595 nm and IC50 values determined via plotting [Fa/(1-Fa)] in log scale against log cisplatin concentration, where:\n(§3) The half inhibitory concentration was calculated using the formula IC50=10^x-intercept"}, "[2]": {"test_system": "CaSki", "assay": "MTT cell viability / cisplatin IC50 determination", "assay_type": "cell-based", "details": "for cell viability, combination treatment vs cisplatin-only: 5 μM INI-43 pre-treatment, fixed cisplatin concentrations, MTT 48 h", "protocol": "as §1, §2, §3"}, "[3]": {"test_system": "HeLa", "assay": "MTT cell viability / cisplatin IC50 determination", "assay_type": "cell-based", "details": "for cell viability, combination treatment vs cisplatin-only: 5 μM INI-43 pre-treatment, fixed cisplatin concentrations, MTT 48 h", "protocol": "as §1, §2, §3"}, "[4]": {"test_system": "SiHa", "assay": "MTT cell viability / cisplatin IC50 determination", "assay_type": "cell-based", "details": "for cell viability, combination treatment vs cisplatin-only: 5 μM INI-43 pre-treatment, fixed cisplatin concentrations, MTT 48 h", "protocol": "as §1, §2, §3"}, "[5]": {"test_system": "HeLa cells", "assay": "Drug washout experiments (MTT)", "assay_type": "cell-based", "protocol": "Cells were plated in 96-well plates and subjected to 2 h INI-43 pre-treatment followed by cisplatin treatment, with or without removing INI-43 from the media, for 48 h. Following treatment, MTT (Sigma) was added and 4 h later crystals solubilized using 10% SLS in 0.01 M HCl."}, "[6]": {"test_system": "p53 reporter activity in SiHa cells", "assay": "p53-luciferase reporter assay", "assay_type": "cell-based", "protocol": "(§4) SiHa cells were transfected with 100 ng p65-luciferase reporter construct (containing five copies of the p65-binding site, Promega) or 200 ng p53-luciferase reporter construct (containing thirteen wildtype p53 binding sites, Addgene plasmid #16442, Addgene Plasmid Repository (el-Deiry W S, Tokino T, Velculescu V E, Levy D B, Parsons R, Trent J M, et al. WAF1, a potential mediator of p53 tumor suppression. Cell. 1993; 75(4):817-25) and 10 ng pRL-TK (encoding Renilla luciferase, Promega), using Genecellin transfection reagent (Celtic Molecular Diagnostics). The following day cells were treated with 5 μM INI-43 for 2 h, followed by 30 μM cisplatin for 24 h, and luciferase activity assayed using the Dual-Luciferase Report assay system (Promega), according to the manufacturer's instructions. Luciferase readings were measured using the Veritas™ microplate luminometer (Promega) and normalised to Renilla luciferase from the same extract."}, "[7]": {"test_system": "p65 reporter activity in SiHa cells", "assay": "p65-luciferase reporter assay", "assay_type": "cell-based", "details": "pre-treated with INI-43 then cisplatin", "protocol": "as §4"}, "[8]": {"test_system": "cyclin D1, c-Myc and XIAP", "assay": "Western blot of NFκB targets", "assay_type": "cell-based", "details": "INI-43-cisplatin combination vs single cisplatin, concentration dependent", "protocol": "For protein extraction, cells were washed with PBS and lysed using RIPA buffer (50 mM Tris-CI, pH 7.4, 150 mM NaCl, 1% (w/v) sodium deoxycholate, 0.1% (v/v) SDS, 1% (v/v) Triton X-100, 2 mM EGTA, 2 mM EDTA, 50 mM NaF, 5 mM Na2P2O7, 1× complete protease inhibitor cocktail (Roche) and 0.1 M Sodium Orthovanadate). For PARP cleavage analysis, dead cells were collected by centrifugation and combined with live cell lysates. Lysates were sonicated, centrifuged, and the supernatant quantified using the BCA Protein Assay Kit (Pierce, Thermo Scientific) according to the manufacturer's instructions. Proteins were subjected to Western blot analysis using the following antibodies: rabbit anti-Kpnβ1 (H-300, sc-11,367, Santa Cruz), rabbit anti-β-tubulin (H-235, sc-9104, Santa Cruz), rabbit anti-PARP1/2 antibody (H-250, sc-7150, Santa Cruz), mouse anti-GAPDH (0411, sc-47,724, Santa Cruz), rabbit anti-p21 (H-164, sc-756, Santa Cruz), rabbit anti-Mcl-1 (H-260, sc-20,679, Santa Cruz), mouse anti-cyclin D1 (HD11, sc-246, Santa Cruz), rabbit anti-c-Myc (N-262, sc-764, Santa Cruz), mouse anti-p53 (DO-7, M7001, DakoCytomation), mouse anti-XIAP (610,763, BD Biosciences), and rabbit anti-phospho-Histone H2AX (γH2AX, Ser139, 20E3, #9718, Cell Signal)."}, "[9]": {"test_system": "NFκB-p65 in cancer cells", "details": "van der Watt et al. 2016; cited from earlier work"}, "[10]": {"details": "2 h INI-43 pre-treatment then cisplatin 48 h, vs no pre-treatment"}}, "data": [{"molecule": "CN(C)CCCn1c(N)c(-c2nc3ccccc3[nH]2)c2nc3ccccc3nc21", "note": "[INI-43]", "values": [{"measurement": "cell viability, INI-43 on its own", "setting": "[1]; 5 μM INI-43", "value": "did not affect cell viability"}, {"measurement": "cell viability, combination treatment vs cisplatin-only", "setting": "[1]; 5 μM INI-43 pre-treatment, fixed cisplatin concentrations, MTT 48 h", "value": "no change in cell viability"}, {"measurement": "change in cisplatin IC50", "setting": "[1]; [10]", "value": "no change"}, {"measurement": "cell viability, INI-43 on its own", "setting": "[2]; 5 μM INI-43", "value": "did not affect cell viability"}, {"measurement": "cell viability, combination treatment vs cisplatin-only", "setting": "[2]", "value": "significantly decreased cell viability"}, {"measurement": "cell viability, combination treatment vs cisplatin-only", "setting": "[2]; listed as Compound A", "value": "increased cisplatin sensitivity"}, {"measurement": "change in cisplatin IC50", "setting": "[2]; [10]", "value": "small reduction"}, {"measurement": "cell viability, INI-43 on its own", "setting": "[3]; 5 μM INI-43", "value": "did not affect cell viability"}, {"measurement": "cell viability, combination treatment vs cisplatin-only", "setting": "[3]", "value": "significantly decreased cell viability"}, {"measurement": "cell viability, combination treatment vs cisplatin-only", "setting": "[3]; listed as Compound A", "value": "increased cisplatin sensitivity"}, {"measurement": "decrease in cisplatin IC50", "setting": "[3]; [10]", "value": 44, "unit": "%"}, {"measurement": "cell viability, INI-43 on its own", "setting": "[4]; 5 μM INI-43", "value": "did not affect cell viability"}, {"measurement": "cell viability, combination treatment vs cisplatin-only", "setting": "[4]", "value": "significantly decreased cell viability"}, {"measurement": "cell viability, combination treatment vs cisplatin-only", "setting": "[4]; listed as Compound A", "value": "increased cisplatin sensitivity"}, {"measurement": "decrease in cisplatin IC50", "setting": "[4]; [10]", "value": 46, "unit": "%"}, {"measurement": "cell viability, combination treatment vs cisplatin alone after INI-43 washout", "setting": "[5]; 2 h INI-43, removed before cisplatin treatment (washout 1 and 2), 48 h", "value": "significantly reduced cell viability"}, {"measurement": "enhancement of cell death upon combination treatment after INI-43 washout", "setting": "[5]; HeLa cells, vs INI-43 still present", "value": "slightly reduced"}, {"measurement": "p53 reporter activity", "setting": "[6]; 5 μM INI-43 alone, 24 h", "value": "small but significant increase"}, {"measurement": "p53 reporter activity", "setting": "[6]; INI-43 pre-treatment plus cisplatin vs cisplatin alone", "value": "significantly increased"}, {"measurement": "cisplatin-induced increase in p65 activity", "setting": "[7]", "value": "reduced"}, {"measurement": "levels of cyclin D1, c-Myc and XIAP", "setting": "[8]", "value": "all reduced"}, {"measurement": "PMA-stimulated nuclear entry of NFκB-p65", "setting": "[9]", "value": "prohibited"}]}]}
